In EP3871678A1, “PRO-ANGIOGENIC COMPOUNDS” (UNIVERSITE DE BORDEAUX, priority 2020, dated 2021):

What was measured:
blood vessels = experiment: In vivo angiogenesis around subcutaneously injected hydrogels (CD31 immunostaining, blood vessel count); conditions: hydrogel injected subcutaneously in mice, day 21, CD31 immunostaining, four random regions
Protocol: (§1) 10-week-old OF-1 female mice (Charles Rivers, France) were used for this study. Before the bilateral subcutaneous injection of hydrogels, mice were anaesthetized using 4.5% isoflurane gas and maintained throughout surgery at 2.5% isoflurane with a face mask. The animals were depilated before surgery. The three different hydrogels were prepared as mentioned above and collected in 1 ml syringes, when the solution was in viscous form. The hydrogels were injected subcutaneously by 21-gauge needle on the dorsal side of the animals.
Subcutaneous injection was carried out, as indicated in example 3, in order to characterize the behavior of the hydrogels after subcutaneous injection and in situ gelation. Animals were sacrificed by cervical dislocation one or three weeks after injection of the hydrogel. The biomaterials (i.e. hydrogel) together with the skin surrounding the injection point were harvested after 7, or 21 days and embedded in paraffin. Histological sections of skin portions associated to the hydrogel were then stained to assess the degradation pattern, cell infiltration (data not shown) and angiogenesis.
The blood vessels in and around the hydrogels 21 days after implantation were identified by immunolabelling with rabbit anti-CD31 antibody (Abcam, ref ab28364 dilution:1/100) followed by incubation with HRP-conjugated anti-rabbit secondary antibody (Vector MP-7401, dilution:1/2)
During the regeneration process, the development of neovessels in the remodeling tissue is of major importance. Therefore, immunostaining of CD31, an endothelial cell marker, was performed on day 21 to assess angiogenesis.
CD31 positive cells were not found inside the hydrogels, showing that the non-degraded hydrogels were bad substrates for blood vessel ingress. Figure 11B depicts the quantification of blood vessels counted manually per 0.2mm^2 at four different random regions in the tissue surrounding each hydrogel. […]

[1] = In vivo toxicity after subcutaneous injection of hydrogels (serum ALT, AST, LDH); set-up: species or system OF-1 female mice; conditions: hydrogels injected subcutaneously in mice, serum markers up to day 21
Protocol: as §1
The in vivo toxicity of the hydrogels formed from compounds 17, 20 and GNF was investigated by serum biochemical evaluation such as alanine aminotransferase (ALT Activity Assay Kit, Sigma-Aldrich, ref MAK052), aspartate aminotransaminase (AST Activity Assay Kit, Sigma-Aldrich, ref MAK055), and lactate dehydrogenase (LDH Assay Kit, Abcam, ref ab102526). At day 0 before surgery and three-time points after implantation (3, 7, and 21 days), blood was collected from retro-orbital sinus. The blood samples were allowed to clot then followed by centrifugation to collect the serum. The serum was used for analysis as recommended by the manufacturers.

[2] = system: CAM of chick embryos (Gallus gallus); experiment: Chick chorioallantoic membrane (CAM) angiogenesis assay; assay type: in vivo; conditions: 20 µl of 500 µg/ml in DMEM on day 13 and 14, evaluated day 17, versus DMEM control
Protocol: The angiogenesis assay was performed on the CAM of chick embryos (Gallus gallus) (E.A.R.L. Morizeau, Dangers, France). Embryos were incubated at 37°C and 70% humidity to […]. On day 3 of development, 3-5 ml of egg white was withdrawn by punctuating the air chamber with the syringe, and a window was made by cutting the eggshell and sealed with Durapore® tape. On day 13, prepared plastic rings (made from Nunc Thermanox® coverslips, diameter 13 mm and thickness 0.2mm) were placed on the intact CAM. 20 µl of the molecule (concentration 500 µg/ml in DMEM medium) or an equivalent volume of DMEM alone as control were deposited in the center of the plastic rings. The treatment was repeated the following day followed by photo documentation (day 14). On day 17, the eggs were fixed by addition of 2 ml of 4% paraformaldehyde (Antigenfix) for 30 min at room temperature. Imaging was performed with a stereomicroscope (Nikon SMZ800) using a digital camera (Nikon Coolpix 950). The images were scored for morphological changes of blood capillaries such as sprouting and tortuosity (0=normal, 1=overrepresented) by five observers using a blinded screening test (data not shown).
The angiogenic response was evaluated on day 17 based on two morphological parameters: sprouting, and presence of tortuous vessels (data not shown). […]

[3] = MALDI-TOF analysis of degradation products released by the hydrogels in PBS; conditions: hydrogel, 21-day incubation in PBS at 37°C, MALDI-TOF of the buffer
Protocol: The degradation products generated during the 21-day incubation of the samples was determined by analyzing the PBS solution in which they were incubated. At day 21 the PBS was collected and analyzed for the degradation products of individual hydrogels by using mass spectroscopy. Studies, performed in triplicates, allowed for the calculation of degradation kinetics.
In order to assess the fragmentation of the molecules during incubation, the by-products of degradation present in the buffer were analysed by MALDI-TOF (Matrix Assisted Laser Desorption Ionization - Time of Flight) mass spectrometry at the end of the experiment (21 days) (Figures 4 and 5).
The analyses were carried out on the MALDI-TOF-TOF Ultraflex (Bruker) in positive reflector mode (detection of positively charged species in the form of [M + H] + and [M + Na] + ions).The external calibration of the spectrometer was carried out with a mixture of components in the mass range m / z 700-2500. The matrix used is a solution of 2,4,6 trihydroxyacetophenone at 20 mg / ml in EtOH / NH4 citrate 25 mM. The samples were diluted by a factor of 50 in water before MS analysis.

[4] = In vitro degradation of the hydrogels (weight loss in PBS); assay type: physicochemical; conditions: hydrogel 1.5% (w/v), PBS 1X, after 3 weeks at 37°C
Protocol: Hydrogels were prepared with compound 17, compound 20, GNF at a concentration of 1.5% (w/v) by dissolving the powder in sterile phosphate buffered saline solution (PBS 1X, pH 7.4). The suspensions were heated at 65 °C for GNF and 80°C for the compounds 17 and 20. The GNF solution was incubated at 37 °C for 30 min to form a gel, whereas the other molecules formed the gel within 5 min.
Hydrogels were also prepared from compound A, which was used as a control.
Hydrogel disks (100 µl) were prepared and were incubated in 7 ml of PBS 1X at 37°C for 21 days. All the hydrogel samples were weighed before incubating with the phosphate buffer (initial weight). The samples were removed at different time points (1, 2, 3, 5, 7, 15, and 21 days), weighed immediately after removing the excess of PBS by gently touching the surface of a tissue (Kimwipes™) and put back in the same solution of PBS.
The degradation was monitored by measuring the weight loss of the gels after different periods of incubation. After 3 weeks at 37°C, the remaining weights were 65 ± 4 %, 63 ± 1 %, and 55 ± 2 %, for GNF, compound 17 and compound 20, respectively, as shown on Figure 3..

Molecule	numbers of blood vessels (bv) in the vicinity of the hydrogel (blood vessels) [bv/0.2 mm2]	toxicity to the vital organs [1]	sprouting ([2]; p = 0.0046 (Fisher's exact test))	tortuous vessels ([2]; p = 0.0195 (Fisher's exact test))	fragmentation of the molecules during incubation (degradation products) [3]	remaining weights [4] [%]
1,14-bis-tetradecanyl-5'-[(4-methylamide)-1H-1,2,3-triazol-1-yl]-N-3-[1-((β-D-glucopyranoside)-1H-1,2,3-triazole-4-yl)methyl]-5'-deoxy thymidine [compound 20]	7.95 ± 0.74	did not show any toxicity to the vital organs	–	–	–	–
Cc1cn([C@H]2C[C@H](O)[C@@H](CO)O2)c(=O)n(Cc2cn([C@@H]3O[C@H](CO)[C@@H](O)[C@H](O)[C@H]3O)nn2)c1=O [GN-1, N-3-[1-((β-D-Glucopyranoside)-1H-1,2,3-triazol-4-yl)methyl] thymidine]	–	–	more CAMs that were treated with GN-1 exhibited sprouting and tortuous vessels	more CAMs that were treated with GN-1 exhibited sprouting and tortuous vessels	–	–
Cc1cn([C@H]2C[C@H](O)[C@@H](Cn3cc(CNC(=O)CCC(F)(F)C(F)(F)C(F)(F)C(F)(F)C(F)(F)C(F)(F)C(F)(F)C(F)(F)F)nn3)O2)c(=O)n(Cc2cn([C@@H]3O[C@H](CO)[C@@H](O)[C@H](O)[C@H]3O)nn2)c1=O [GNF]	6.10 ± 1.07	did not show any toxicity to the vital organs	–	–	fragmentations of the hydrogel molecules as a result of degradation	65 ± 4
Cc1cn([C@H]2C[C@H](O)[C@@H](Cn3cc(CNC(=O)NCCCCCCCCCCCCNC(=O)NCc4cn(C[C@H]5O[C@@H](n6cc(C)c(=O)n(Cc7cn([C@@H]8O[C@H](CO)[C@@H](O)[C@H](O)[C@H]8O)nn7)c6=O)C[C@@H]5O)nn4)nn3)O2)c(=O)n(Cc2cn([C@@H]3O[C@H](CO)[C@@H](O)[C@H](O)[C@H]3O)nn2)c1=O [compound 17, 1,12-bis-dodecanyl-5'-[(4-methylurea)-1H-1,2,3-triazol-1-yl]-N-3-[1-((β-D-glucopyranoside)-1H-1,2,3-triazole-4-yl)methyl]-5'-deoxy thymidine]	4.30±0.41	did not show any toxicity to the vital organs	–	–	fragmentations of the hydrogel molecules as a result of degradation	–
